How the values were obtained:
[1] = quantitative mass balance studies using [^14C]-bexagliflozin; cited from earlier work
P-gp = P-gp (Homo sapiens, UniProt P08183); test: P-gp substrate observation; assay type: in vitro ADME
Description: Because P-gp expression increases with distance along the small intestine, absorption is likely greater in the duodenum than the ileum, and quantitative mass balance studies using [^14C]-bexagliflozin have shown that colonic absorption is minimal (Zhang et al. Xenobiotica. 2019 Aug. 27:1-11. doi: 10.1080/00498254.2019.1654634). Because of the potential practical incompatibility of using an extended release tablet while aiming for most drug release to occur high in the small intestine, tablets of the invention advantageously include an adaptation that can help to retain them in the stomach. A large part of the extended release of bexagliflozin can thus occur in the stomach, permitting absorption of the drug to occur at the desired location in the small intestine, thereby providing an advantageous pharmacokinetic profile.

[2] = human, in vivo
Description: In a drug-drug interaction clinical pharmacology study the effects of the GLP-1 receptor agonist exenatide on the pharmacokinetics of bexagliflozin were studied in a randomized crossover study. It is known that GLP-1 receptor agonists retard gastric emptying and because the bexagliflozin dosage form has a gastroretentive mechanism, the possibility that the retardation would adversely affect bexagliflozin delivery was considered important to address (see e.g., Guideline on the pharmacokinetic and clinical evaluation of modified release dosage forms (EMA/CPMP/EWP/280/96 Corr1) section 5.1.4.2.). In the study, participants were assigned to either receive bexagliflozin alone first, or combined treatment with bexagliflozin and exenatide first. Each group received both treatments alternately, in a crossover fashion (two-period, two-treatment crossover design), with the two treatment periods separated by a 7-day washout period. […] Although the endpoints of the confidence intervals fell outside of the range 80-125%, indicating an interaction leading to a change in exposure when bexagliflozin was administered following exenatide, the effect of exenatide on bexagliflozin pharmacokinetics was not so large as to jeopardize patient safety or to provoke a recommendation for a change in prescribing pattern. […] Absorption was delayed when bexagliflozin was administered 30 minutes after exenatide injection, with a median Tmax of 5.00 hours post-dose compared to 2.00 hours post-dose following administration of bexagliflozin alone.

P-gp, sequence (P08183 whole entry): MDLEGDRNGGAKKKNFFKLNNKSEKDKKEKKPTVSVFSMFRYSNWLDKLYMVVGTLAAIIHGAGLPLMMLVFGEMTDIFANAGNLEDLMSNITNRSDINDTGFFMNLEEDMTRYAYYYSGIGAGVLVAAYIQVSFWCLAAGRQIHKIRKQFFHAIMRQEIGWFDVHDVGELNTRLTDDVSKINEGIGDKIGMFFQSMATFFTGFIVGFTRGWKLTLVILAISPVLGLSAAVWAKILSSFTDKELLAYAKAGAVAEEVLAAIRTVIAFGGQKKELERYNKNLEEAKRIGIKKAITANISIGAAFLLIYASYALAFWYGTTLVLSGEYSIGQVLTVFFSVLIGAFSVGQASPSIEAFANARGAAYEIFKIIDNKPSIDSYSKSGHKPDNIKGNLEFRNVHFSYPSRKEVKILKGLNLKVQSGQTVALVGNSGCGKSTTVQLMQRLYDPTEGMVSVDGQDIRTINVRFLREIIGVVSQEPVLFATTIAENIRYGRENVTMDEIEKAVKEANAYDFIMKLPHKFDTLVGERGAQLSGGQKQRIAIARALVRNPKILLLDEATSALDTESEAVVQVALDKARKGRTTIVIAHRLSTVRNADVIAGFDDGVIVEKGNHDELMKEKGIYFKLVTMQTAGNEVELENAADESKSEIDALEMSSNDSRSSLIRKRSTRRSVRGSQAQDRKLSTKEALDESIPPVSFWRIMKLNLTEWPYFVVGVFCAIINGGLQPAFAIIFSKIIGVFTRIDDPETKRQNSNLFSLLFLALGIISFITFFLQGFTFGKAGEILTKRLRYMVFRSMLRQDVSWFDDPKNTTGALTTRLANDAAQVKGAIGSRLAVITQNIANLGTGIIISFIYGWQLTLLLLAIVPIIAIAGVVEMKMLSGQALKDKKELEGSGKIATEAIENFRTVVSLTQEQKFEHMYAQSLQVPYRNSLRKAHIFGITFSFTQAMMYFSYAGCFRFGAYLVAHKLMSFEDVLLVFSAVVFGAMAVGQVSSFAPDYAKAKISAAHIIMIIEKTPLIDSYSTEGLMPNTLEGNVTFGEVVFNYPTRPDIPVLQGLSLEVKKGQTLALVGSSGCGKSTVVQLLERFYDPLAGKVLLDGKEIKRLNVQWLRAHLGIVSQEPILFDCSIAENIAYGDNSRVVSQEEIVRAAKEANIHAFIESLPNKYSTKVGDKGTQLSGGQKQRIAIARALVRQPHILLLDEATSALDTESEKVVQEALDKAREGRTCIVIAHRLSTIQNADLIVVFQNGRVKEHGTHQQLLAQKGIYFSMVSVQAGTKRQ

OC[C@H]1O[C@@H](c2ccc(Cl)c(Cc3ccc(OCCOC4CC4)cc3)c2)[C@H](O)[C@@H](O)[C@@H]1O [bexagliflozin, (2S,3R,4R,5S,6R)-2-(4-chloro-3-(4-(2-cyclopropoxyethoxy)benzyl)phenyl)-6-(hydroxymethyl)tetrahydro-2H-pyran-3,4,5-triol]
colonic absorption [1]: minimal
P-gp substrate status (P-gp): P-gp substrate
intra-subject variability for AUC0-t and AUC0-∞ [2]: < 22%
intra-subject variability for Cmax [2]: approximately 32%
ratio of geometric least square means for AUC0-t, with exenatide to alone [2]: 147.50%
ratio of geometric least square means for AUC0-∞, with exenatide to alone [2]: 137.56%
ratio of geometric least square means for Cmax, with exenatide to alone [2]: 125.27%
increase of AUC0-t compared to bexagliflozin alone ([2]; sc): approximately 48%
increase of AUC0-∞ compared to bexagliflozin alone ([2]; sc): ~38%
increase of Cmax compared to bexagliflozin alone ([2]; sc): ~25%
